In PubChem BioAssay (NCI):
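All cell lines were grown in 96-well plates and treated with compound for 48 hours. GI50 is the concentration that inhibits growth by half. TGI marks complete inhibition of growth.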

Assays:
Test in all cases: DTP human tumour cell line panel, 48 h
786-0 renal = system: 786-0 renal
A498 renal = system: A498 renal
A549 NSCLC = system: A549 NSCLC
ACHN renal = system: ACHN renal
BT-549 breast = system: BT-549 breast
CAKI-1 renal = system: CAKI-1 renal
CCRF-CEM leukemia = system: CCRF-CEM leukemia
COLO 205 colon = system: COLO 205 colon
DU-145 prostate = system: DU-145 prostate
HCC-2998 colon = system: HCC-2998 colon
HCT-116 colon = system: HCT-116 colon
HCT-15 colon = system: HCT-15 colon
HL-60(TB) leukemia = system: HL-60(TB) leukemia
HOP-62 NSCLC = system: HOP-62 NSCLC
HOP-92 NSCLC = system: HOP-92 NSCLC
HS 578T breast = system: HS 578T breast
HT29 colon = system: HT29 colon
IGROV1 ovarian = system: IGROV1 ovarian
K-562 leukemia = system: K-562 leukemia
KM12 colon = system: KM12 colon
LOX IMVI melanoma = system: LOX IMVI melanoma
M14 melanoma = system: M14 melanoma
MALME-3M melanoma = system: MALME-3M melanoma
MCF7 breast = system: MCF7 breast
MDA-MB-231 breast = system: MDA-MB-231 breast
MDA-MB-435 = system: MDA-MB-435
MOLT-4 leukemia = system: MOLT-4 leukemia
NCI-H226 lung = system: NCI-H226 lung
NCI-H460 lung = system: NCI-H460 lung
NCI-H522 lung = system: NCI-H522 lung
NCI/ADR-RES ovarian = system: NCI/ADR-RES ovarian
OVCAR-3 ovarian = system: OVCAR-3 ovarian
OVCAR-4 ovarian = system: OVCAR-4 ovarian
OVCAR-5 ovarian = system: OVCAR-5 ovarian
OVCAR-8 ovarian = system: OVCAR-8 ovarian
PC-3 prostate = system: PC-3 prostate
RPMI-8226 leukemia = system: RPMI-8226 leukemia
RXF 393 renal = system: RXF 393 renal
SF-268 CNS = system: SF-268 CNS
SF-295 CNS = system: SF-295 CNS
SF-539 CNS = system: SF-539 CNS
SK-MEL-2 melanoma = system: SK-MEL-2 melanoma
SK-MEL-28 melanoma = system: SK-MEL-28 melanoma
SK-MEL-5 melanoma = system: SK-MEL-5 melanoma
SK-OV-3 ovarian = system: SK-OV-3 ovarian
SN12C renal = system: SN12C renal
SNB-19 CNS = system: SNB-19 CNS
SNB-75 CNS = system: SNB-75 CNS
SR leukemia = system: SR leukemia
SW-620 colon = system: SW-620 colon
T-47D breast = system: T-47D breast
U251 CNS = system: U251 CNS
UACC-257 melanoma = system: UACC-257 melanoma
UACC-62 melanoma = system: UACC-62 melanoma
UO-31 renal = system: UO-31 renal

O=C1C(Br)=CC2C1C1C3CCC3C2(Br)C12OCCO2 (stereo not given)
GI50 (786-0 renal): 4.32 µM
TGI (786-0 renal): 16 µM
GI50 (A498 renal): 2.99 µM
TGI (A498 renal): 11.4 µM
GI50 (A549 NSCLC): 2.29 µM
TGI (A549 NSCLC): 10.9 µM
GI50 (ACHN renal): 2.94 µM
TGI (ACHN renal): 12.2 µM
GI50 (BT-549 breast): 5.03 µM
TGI (BT-549 breast): 18.1 µM
GI50 (CAKI-1 renal): 4.1 µM
TGI (CAKI-1 renal): 17.6 µM
GI50 (CCRF-CEM leukemia): 1.82 µM
TGI (CCRF-CEM leukemia): 10.5 µM
GI50 (COLO 205 colon): 3.35 µM
TGI (COLO 205 colon): 10.9 µM
GI50 (DU-145 prostate): 3.22 µM
TGI (DU-145 prostate): 13.8 µM
GI50 (HCC-2998 colon): 6.6 µM
TGI (HCC-2998 colon): 20.5 µM
GI50 (HCT-116 colon): 2.08 µM
TGI (HCT-116 colon): 10.3 µM
GI50 (HCT-15 colon): 1.22 µM
TGI (HCT-15 colon): 3.49 µM
GI50 (HL-60(TB) leukemia): 2.2 µM
TGI (HL-60(TB) leukemia): 5.66 µM
GI50 (HOP-62 NSCLC): 4.25 µM
TGI (HOP-62 NSCLC): 16.5 µM
GI50 (HOP-92 NSCLC): 5.08 µM
TGI (HOP-92 NSCLC): 21.8 µM
GI50 (HS 578T breast): 3.46 µM
TGI (HS 578T breast): 71 µM
GI50 (HT29 colon): 2.75 µM
TGI (HT29 colon): 10.3 µM
GI50 (IGROV1 ovarian): 2.89 µM
TGI (IGROV1 ovarian): 12.7 µM
GI50 (K-562 leukemia): 2.98 µM
TGI (K-562 leukemia): 13 µM
GI50 (KM12 colon): 2.39 µM
TGI (KM12 colon): 8.4 µM
GI50 (LOX IMVI melanoma): 1.21 µM
TGI (LOX IMVI melanoma): 3.74 µM
GI50 (M14 melanoma): 4.45 µM
TGI (M14 melanoma): 19.9 µM
GI50 (MALME-3M melanoma): 4.45 µM
TGI (MALME-3M melanoma): 21.3 µM
GI50 (MCF7 breast): 1.98 µM
TGI (MCF7 breast): 12.8 µM
GI50 (MDA-MB-231 breast): 1.84 µM
TGI (MDA-MB-231 breast): 11.4 µM
GI50 (MDA-MB-435): 2.93 µM
TGI (MDA-MB-435): 13.4 µM
GI50 (MOLT-4 leukemia): 3.64 µM
TGI (MOLT-4 leukemia): 10.8 µM
GI50 (NCI-H226 lung): 3.55 µM
TGI (NCI-H226 lung): 20.4 µM
GI50 (NCI-H460 lung): 2.08 µM
TGI (NCI-H460 lung): 10.2 µM
GI50 (NCI-H522 lung): 1.82 µM
TGI (NCI-H522 lung): 4.73 µM
GI50 (NCI/ADR-RES ovarian): 4.84 µM
TGI (NCI/ADR-RES ovarian): 41 µM
GI50 (OVCAR-3 ovarian): 3.24 µM
TGI (OVCAR-3 ovarian): 9.88 µM
GI50 (OVCAR-4 ovarian): 2.79 µM
TGI (OVCAR-4 ovarian): 14.7 µM
GI50 (OVCAR-5 ovarian): 2.47 µM
TGI (OVCAR-5 ovarian): 8.91 µM
GI50 (OVCAR-8 ovarian): 2.8 µM
TGI (OVCAR-8 ovarian): 12.3 µM
GI50 (PC-3 prostate): 3.47 µM
TGI (PC-3 prostate): 19 µM
GI50 (RPMI-8226 leukemia): 1.71 µM
TGI (RPMI-8226 leukemia): 5.76 µM
GI50 (RXF 393 renal): 2.64 µM
TGI (RXF 393 renal): 11.6 µM
GI50 (SF-268 CNS): 2.5 µM
TGI (SF-268 CNS): 15.5 µM
GI50 (SF-295 CNS): 9.69 µM
TGI (SF-295 CNS): 27.5 µM
GI50 (SF-539 CNS): 2.15 µM
TGI (SF-539 CNS): 5.99 µM
GI50 (SK-MEL-2 melanoma): 3.17 µM
TGI (SK-MEL-2 melanoma): 9.09 µM
GI50 (SK-MEL-28 melanoma): 3.98 µM
TGI (SK-MEL-28 melanoma): 18 µM
GI50 (SK-MEL-5 melanoma): 3.19 µM
TGI (SK-MEL-5 melanoma): 14.4 µM
GI50 (SK-OV-3 ovarian): 4.3 µM
TGI (SK-OV-3 ovarian): 15.3 µM
GI50 (SN12C renal): 3.08 µM
TGI (SN12C renal): 15.3 µM
GI50 (SNB-19 CNS): 9.65 µM
TGI (SNB-19 CNS): 23 µM
GI50 (SNB-75 CNS): 3.42 µM
TGI (SNB-75 CNS): 34.7 µM
GI50 (SR leukemia): 0.721 µM
TGI (SR leukemia): 6.57 µM
GI50 (SW-620 colon): 3.12 µM
TGI (SW-620 colon): 11.6 µM
GI50 (T-47D breast): 2.48 µM
TGI (T-47D breast): 12.9 µM
GI50 (U251 CNS): 2.88 µM
TGI (U251 CNS): 13 µM
GI50 (UACC-257 melanoma): 2.14 µM
TGI (UACC-257 melanoma): 12.5 µM
GI50 (UACC-62 melanoma): 2.87 µM
TGI (UACC-62 melanoma): 14.1 µM
GI50 (UO-31 renal): 3.4 µM
TGI (UO-31 renal): 13.4 µM
